Source: patent US20160296590A1, “METHOD OF TREATING OR PREVENTING EPILEPSY OR SEIZURES USING ONE OR MORE NEURAL REGENERATION PEPTIDES” (CURONZ HOLDINGS COMPANY LIMITED, priority 2013, published 2016)
Entries after “also recorded” stand apart in the source; their conditions may differ. Where no end group is shown, it is not given here. [ ]: non-standard residue; d: D form. Aib = CC(C)(N)C(=O)O

Key:
Format in all cases: in vivo, rat
PTZ-induced seizures = assay: Behavioural test of PTZ-induced seizure attacks; conditions: for Behavioural test Severity: seizure score 0-6
Experimental: Adult male wistar rats (200-250g) were housed under controlled conditions (ambient temperature=22° C., humidity=40%; 12-h light/dark cycle) with food and water ad libitum. Animals were age- and weight-matched and randomly received by intra peritoneal injection NRP2945 in saline (5, 10 or 20 μg/kg) or saline alone (control) thirty minutes before the i.p. injection of pentylenetetrazol (PTZ; 50 mg/kg dissolved in 0.9% saline). All experiments were carried out according to the protocol approved by the Animal Ethics Committee of Shefa Neuroscience Center, Tehran, Iran. After each PTZ-injection, the convulsive behaviour of each rat was assessed for 30 min, and resultant seizures were scored as follows: 0=normal behaviour; 1=immobility; 2=rigid posture; 3=repetitive scratching, circling, or head bobbing; 4=forelimb clonus, rearing, and falling; 5=repeated occurrence of level four behaviour, 6=severe tonic-clonic behaviour or status epilepticus (Karimzadeh et al., 2013). Latency of seizure onset was defined as the average length of time in seconds between PTZ administration an initially detectable and seizure. A generalized seizure was characterised by symmetric forelimb and hind limb tonus, followed by hind limb clonus and subsequent jumping activity. Because some animals occasionally had more than one seizure, the seizure duration was assessed as the sum of durations of these multiple seizures.

[1] = system: PTZ-induced epileptiform burst discharges; assay: Electrocorticogram (ECoG) recording of PTZ-induced epileptiform burst discharges
Experimental: Adult male wistar rats (200-250g) were housed under controlled conditions (ambient temperature=22° C., humidity=40%; 12-h light/dark cycle) with food and water ad libitum. Animals were age- and weight-matched and randomly received by intra peritoneal injection NRP2945 in saline (5, 10 or 20 μg/kg) or saline alone (control) thirty minutes before the i.p. injection of pentylenetetrazol (PTZ; 50 mg/kg dissolved in 0.9% saline). All experiments were carried out according to the protocol approved by the Animal Ethics Committee of Shefa Neuroscience Center, Tehran, Iran. Animals were anaesthetized with chloral hydrate 3.5% (dissolved in normal 0.9% saline; Sigma-Aldrich) and the head of each rat was placed in a stereotaxical instrument (Stoelting Instruments, USA). Epidural recording electrodes were stereotaxically implanted above the left and right somatosensory cortices (3.0 mm posteriorly to Bregma and 3.0 mm laterally from the midline) under continuous chloral hydrate anesthesia. The reference electrode is located at the nasal bone. ECoG was recorded via monopolar silver electrodes connected to an amplifier (EXT-02 F, NPI, Germany; with band-pass filters at […], sampling rate 10 kHz) and stored by a digital oscilloscope. ECoG recordings were performed for 30 minutes after receiving saline or NRP2945 (5, 10, 20 μg/kg) and 30 minutes after the injection of PTZ. Latency, duration, amplitude, and frequency of epileptic spikes activity were calculated using AxoScope 10 software (Axon Instruments, CA, USA).

dark neurons = assay: Dark neuron count (toluidine blue, physical dissector) after PTZ-induced seizures; conditions: hippocampal CA1 and CA3 areas and somatosensory cortex, 5, 10 and 20 μg/kg
Experimental: (§1) Adult male wistar rats (200-250g) were housed under controlled conditions (ambient temperature=22° C., humidity=40%; 12-h light/dark cycle) with food and water ad libitum. Animals were age- and weight-matched and randomly received by intra peritoneal injection NRP2945 in saline (5, 10 or 20 μg/kg) or saline alone (control) thirty minutes before the i.p. injection of pentylenetetrazol (PTZ; 50 mg/kg dissolved in 0.9% saline). All experiments were carried out according to the protocol approved by the Animal Ethics Committee of Shefa Neuroscience Center, Tehran, Iran.
The volume-weighted mean volume of normal neurons was calculated directly by point-sampled intercept on 10 uniform systematically and randomly sampled microscopic fields of the pyramidal layers of hippocampal areas CA1 and CA3as well as the somatosensory cortex. A lattice of test points on lines was superimposed randomly onto the traced nuclear profiles in each particular field. […] These lines produced point-sampled intercepts, the lengths of which were measured and cubed. […] For quantitative analysis of dark neurons, the physical dissector method was used. […]
Animals were deeply anaesthetised with chloral hydrate (3.5%; Sigma-Aldrich) and perfused transcardially with 200 ml of saline followed by 200 ml of a solution containing 1% paraformaldehyde (PFA). […] The magnification was calculated using an objective micrometer.

GABAA receptor β subunit = assay: Immunohistochemistry of GABAA receptor β subunit expression after PTZ injection; conditions: 20 μg/kg; only CA1 hippocampal region; P<0.001
Experimental: as §1
(§2) Animals were deeply anaesthetized with chloral hydrate and perfused transcardially with 200 ml of saline followed by 600 ml of 4% PFA solution. The brains were extracted and kept in 4% PFA for at least 4 days at 4° C. and were then processed for immunohistochemistry studies. The serial (8 μm) coronal sections were prepared. Three paraffin embedded sections in 1.8 to 3.3 mm posterior to the bregma from each animal were cleared and rehydrated through a series of xylol and alcohol and washed with phosphate buffered saline (PBS) three times and incubated in blockage solution (3% H2O2/methanol for 5 min). After washing in PBS, slides were boiled in sodium citrate buffer at 95° C, for 10 min. […]

GABAA receptor α subunit = assay: Immunohistochemistry of GABAA receptor α subunit expression after PTZ injection; conditions: 20 μg/kg; somatosensory cortex and hippocampal CA1 area; P<0.001
Experimental: as §1, §2

normal neurons = assay: Volume-weighted mean volume of normal neurons (stereology) after PTZ-induced seizures; design: Mean volume of normal neurons CA1 / Mean volume of normal neurons CA3 / Mean volume of normal neurons Cortex: unit not given here; conditions: for Mean volume of normal neurons CA1: hippocampal CA1; for Mean volume of normal neurons CA1 / Mean volume of normal neurons CA3 / Mean volume of normal neurons Cortex: rats; for Mean volume of normal neurons CA3: hippocampal CA3; for Mean volume of normal neurons Cortex: somatosensory cortex
Experimental: as §1
The volume-weighted mean volume of normal neurons was calculated directly by point-sampled intercept on 10 uniform systematically and randomly sampled microscopic fields of the pyramidal layers of hippocampal areas CA1 and CA3as well as the somatosensory cortex. A lattice of test points on lines was superimposed randomly onto the traced nuclear profiles in each particular field. Nuclei of neurons were marked and two isotropic lines from randomly selected directions were centred on this neuron and superimposed. The intersection of each line with the outer surface of the respective neuron's soma was marked. These lines produced point-sampled intercepts, the lengths of which were measured and cubed. The mean was multiplied by […], and finally all intercepts were averaged to give an estimate of the volume-weighted mean neuronal volume. For quantitative analysis of dark neurons, the physical dissector method was used. Ten pairs of sections, with […] distance, were collected from each brain. The first section of each pair was designated as the reference and the second one was used for comparison. On each pair of sections, at least 10 microscopic fields were selected by uniform systematic-random sampling in every area of interest. Using the unbiased frame and physical dissector counting rule, the counting of dark neurons in each field was carried out (Jafarian et al., 2010).
Animals were deeply anaesthetised with chloral hydrate (3.5%; Sigma-Aldrich) and perfused transcardially with 200 ml of saline followed by 200 ml of a solution containing 1% paraformaldehyde (PFA). After perfusion, all rats were decapitated and the brains were removed. The brains were kept in 1% PFA for at least 10 days and were then processed for histological studies as follows. The brain was cut into transverse sections of 8 µm thickness. Sections were stained with toluidine blue. The sections were selected by uniform systematic random sampling in every area of interest. Different areas (hippocampal CA1 and CA3 areas and somatosensory neocortex) were studied under a light microscope (BX51, Olympus, Japan) equipped with a digital camera. Digital photographs were taken using a 40x oil immersion objective lens (Olympus, Japan). The magnification was calculated using an objective micrometer.

GAD-65 = assay: Immunohistochemistry of GAD-65 expression after PTZ injection; conditions: 20 μg/kg; somatosensory cortex, CA1 and CA3 hippocampal areas; P<0.001
Experimental: as §1, §2

[2] = 5 μg/kg i.p. 30 min before PTZ, rats
[3] = 10 μg/kg i.p. 30 min before PTZ, rats
[4] = 5 μg/kg i.p. 30 min before PTZ, anaesthetized rats
[5] = 10 μg/kg i.p. 30 min before PTZ, anaesthetized rats

Substance: GlyArgArgAlaAlaProGlyArgAibGlyGly (GRRAAPGR[Aib]GG) [NRP2945, 11-residue neural regeneration peptide, derived from amino acid position 40-50 of human CAPS2]
- Behavioural test Latency (PTZ-induced seizures; 5 μg/kg i.p. 30 min before PTZ 50 mg/kg i.p., rats): 230.2 ± 10.6 s
- Behavioural test Duration (PTZ-induced seizures; [2]): 35.83 ± 5.9 s
- Behavioural test Severity (PTZ-induced seizures; [2]): 3.67 ± 0.21
- Behavioural test Latency (PTZ-induced seizures; 10 μg/kg i.p. 30 min before PTZ 50 mg/kg i.p., rats): 150.2 ± 7.4 s
- Behavioural test Duration (PTZ-induced seizures; [3]): 37.67 ± 7.3 s
- Behavioural test Severity (PTZ-induced seizures; [3]): 3.67 ± 0.21
- PTZ-induced seizures or convulsions (PTZ-induced seizures; 20 μg/kg i.p. 30 min before PTZ, rats): completely prevented
- latency of seizure attacks compared to control (PTZ-induced seizures; 5 and 10 μg/kg i.p.): not affecting
- severity of seizure attacks compared to control (PTZ-induced seizures; 5 and 10 μg/kg i.p.): not affecting
- total duration of seizure attacks compared to control (PTZ-induced seizures; 5 and 10 μg/kg i.p., p<0.05, n=12): reduced
- ECoG Amplitude [1, 4]: 1.1 ± 0.04 mV
- ECoG Duration [1, 4]: 60 ± 1.2 s
- ECoG Frequency [1, 4]: 4.7 ± 0.3 per min
- ECoG Latency [1, 4]: 326 ± 24 s
- ECoG Amplitude [1, 5]: 0.84 ± 0.1 mV
- ECoG Duration [1, 5]: 60 ± 2.1 s
- ECoG Frequency [1, 5]: 6.67 ± 0.9 per min
- ECoG Latency [1, 5]: 417 ± 37 s
- development of epileptiform field potentials ([1]; 20 μg/kg i.p. 30 min before PTZ, anaesthetized rats): completely prevented
- amplitude of epileptiform field potentials compared to control ([1]; 5 and 10 μg/kg i.p., P≦0.001): significantly smaller; also recorded: decreased
- duration of epileptiform field potentials compared to control ([1]; 5 and 10 μg/kg i.p., P≦0.001): significantly shorter; also recorded: decreased
- latency time to onset of first spike waves compared to control ([1]; 5 and 10 μg/kg i.p., P≦0.001): increased
- repetition rate (frequency) of epileptiform field potentials compared to control ([1]; 5 and 10 μg/kg i.p., P≦0.001): significantly lower; also recorded: decreased
- Density (production) of dark neurons in comparison to saline (dark neurons): significantly decreased
- Density (production) of dark neurons in comparison to saline (dark neurons; listed as NRP 2945): inhibited
- expression of GABAA receptor β subunit compared to control (GABAA receptor β subunit): higher; also recorded: enhanced
- expression of GABAA receptor α subunit compared to control (GABAA receptor α subunit): higher expression; also recorded: significant enhancement
- mean volume of normal neurons after PTZ-induced seizures compared to control (normal neurons; 5 μg/kg): did not affect
- mean volume-weighted volume of normal neurons compared to control (normal neurons; 10 and 20 μg/kg, CA1, CA3 and somatosensory cortex, P≦0.001): higher; also recorded: larger
- Mean volume of normal neurons CA1 (normal neurons; 5 μg/kg i.p. before PTZ): 380.9 ± 7.1
- Mean volume of normal neurons CA1 (normal neurons; 10 μg/kg i.p. before PTZ): 413.1 ± 4.4
- Mean volume of normal neurons CA1 (normal neurons; 20 μg/kg i.p. before PTZ): 451.9 ± 5.5
- Mean volume of normal neurons CA3 (normal neurons; 5 μg/kg i.p. before PTZ): 387.9 ± 3.2
- Mean volume of normal neurons CA3 (normal neurons; 10 μg/kg i.p. before PTZ): 438.6 ± 5.6
- Mean volume of normal neurons CA3 (normal neurons; 20 μg/kg i.p. before PTZ): 474.1 ± 5.1
- Mean volume of normal neurons Cortex (normal neurons; 5 μg/kg i.p. before PTZ): 340.8 ± 3.1
- Mean volume of normal neurons Cortex (normal neurons; 10 μg/kg i.p. before PTZ): 395.7 ± 6.1
- Mean volume of normal neurons Cortex (normal neurons; 20 μg/kg i.p. before PTZ): 387.9 ± 7.5
- expression of GAD-65 immunoreactive neurons compared to control (GAD-65): significantly higher; also recorded: significant increase
